Test results: US20230357334A1, “COMPOSITION OF DRUG AND WILD-TYPE CELL-PENETRATING PEPTIDE DERIVATIVE” (ALEPHOSON BIOPHARMACEUTICALS LTD., priority 2020, published 2023)
“Also recorded” adds a separate entry of the source. Where two headings read alike, the source gives them in different places.

Assays:
[1] = rabbit, in vivo
Description: Firstly, eye drops were prepared. Polypeptide/Aflibercept composition was prepared by diluting Aflibercept (40 mg/mL) to 20 mg/mL with a commercially available Aflibercept injection solvent, dissolving polypeptide 289WP to 6.16 mg/mL with this solution, and storing at 4° C. for use. Before being used, the composition was incubated for at least 24 h at 4° C., and kept standing at room temperature for 1 h.
Next, the administration and sampling protocol were determined. Healthy male rabbits each about 1 kg were selected, eyes of which were ensured to be normal by ophthalmic examination before the experiment. The experimental process follows the ethical specifications of experimental animals. Each eye of the rabbit was dripped with 30 μL of different composition solutions containing 600 μg of Aflibercept per eye. Ocular tissue samples were taken at 1 h after administration.
Subsequently, the Aflibercept concentrations in tissues were determined. The ELISA plate coated with antigen (hVEGF-A165) was prepared, as well as the extracted tissues (total protein extraction solution of blood plasma, aqueous humor, vitreous humor and retina). […]
The concentrations of Aflibercept in tissues were measured at 1 h after administration. Significant differences were analyzed by 2-tailed unpaired t-test (^nsp>0.05, *p<0.05).

[2] = test system: HCECs; assay: Endocytosis mechanism of 289WP/Ranibizumab composition (temperature, endocytosis inhibitors), HCECs; format: cell-based, human; conditions: Mixture without inhibition = 100%
Description: (§1) The uptake amount of 289WP-FAM or Cy5-Rani in the Mixture without inhibition is used as control (100%). Significant differences were analyzed by 1-tailed ANOVA, corrected by Dunnett's test (n=3, ^nsp>0.05, *p<0.05, **p<0.01, ***p<0.001).

[3] = test system: ARPE-19 cells; assay: Endocytosis mechanism of 289WP/Ranibizumab composition (temperature, endocytosis inhibitors), ARPE-19; format: cell-based, human; conditions: Mixture without inhibition = 100%
Description: as §1

[4] = test system: ARPE-19 cells; assay: Cell uptake of Ranibizumab mediated by different polypeptides, ARPE-19; format: cell-based, human; conditions: for increase of mean fluorescence intensity compared with free antibodies: 10 μM polypeptide + 1 μM Cy5-Rani (10:1), freshly prepared, 2 h, 37° C.; for mean fluorescence intensity of cells, comparison between polypeptides: composition solutions stored at 4° C. for 7 days; for cell uptake of Ranibizumab mediated by polypeptide, comparison between polypeptides: molar ratio 10:1, freshly prepared
Description: (§2) Well-grown cells HCECs, ARPE-19 and HUVECs were taken and plated respectively in a 24-well plate at 1×10^4 cells/well. After incubating for 24 h, the culture solution was discarded, and solutions of different compositions of polypeptide/Cy5-Rani mixture (containing 1 μM of Cy5-Rani) were added and incubated for 2 h at 37° C. The drug solution was then discarded, and the cells were washed 3 times with 10 mM PBS (containing 0.02 mg/mL heparin sodium), collected, and resuspended in 10 mM PBS. Flow cytometer was used for detecting positive cell rate and mean fluorescence intensity, with detecting channel excitation wavelength of 638 nm and emission wavelength of 660 nm. […] 10 μM of different polypeptides were mixed with 1 μM Cy5-Rani, respectively, and incubated at 4° C. for 24 h to obtain composition solutions. Before the detection, the composition solutions were incubated at 37° C. with different cells for 2 h, or the composition solutions were stored at 4° C. for 7 days and then incubated with the cells. Flow cytometer was used for detecting the mean fluorescence intensity values of cells (Ex 638 nm/Em 660 nm).

[5] = test system: HCECs; assay: Cell uptake of Ranibizumab mediated by different polypeptides, HCECs; format: cell-based, human; conditions: for increase of mean fluorescence intensity compared with free antibodies: 10 μM polypeptide + 1 μM Cy5-Rani (10:1), freshly prepared, 2 h, 37° C.; for mean fluorescence intensity of cells, comparison between polypeptides: composition solutions stored at 4° C. for 7 days; for cell uptake of Ranibizumab mediated by polypeptide, comparison between polypeptides: molar ratio 10:1, freshly prepared
Description: as §2

[6] = test system: HCECs, ARPE-19 and HUVECs; assay: Cell uptake of polypeptide/Ranibizumab compositions at different molar ratios; format: cell-based, human; conditions: 89WP:Ranibizumab molar ratio 5:1 to 18:1; 3 kinds of cells; 1 μM Cy5-Rani; 2 h, 37° C.
Description: First, Ranibizumab was fluorescently labeled. […] After the addition of 0.12 mg fluorescence labeling reagent Sulfo-Cy5-NHS, the solution was stirred and reacted overnight under the condition of 4° C.
Next, a polypeptide/Ranibizumab composition was prepared. Appropriate amount of polypeptide was weighed and dissolved by using a certain volume of commercially available Ranibizumab injection.
Well-grown cells HCECs, ARPE-19 and HUVECs were taken and plated respectively in a 24-well plate at 1×10^4 cells/well. After incubating for 24 h, the culture solution was discarded, and solutions of different compositions of polypeptide/Cy5-Rani mixture (containing 1 μM of Cy5-Rani) were added and incubated for 2 h at 37° C. The drug solution was then discarded, and the cells were washed 3 times with 10 mM PBS (containing 0.02 mg/mL heparin sodium), collected, and resuspended in 10 mM PBS. Flow cytometer was used for detecting positive cell rate and mean fluorescence intensity, with detecting channel excitation wavelength of 638 nm and emission wavelength of 660 nm.
Significance analysis was performed using One-Way ANOVA test, corrected by Tukey's test (n=3, ^nsp>0.05, *p<0.05, **p<0.01, ***p<0.001).

[7] = test system: ARPE-19 cells; assay: Uptake of 89WP/nanoantibody compositions at different ratios, flow cytometry; format: cell-based, human; conditions: 89WP:nanoantibody molar ratio 5:1 to 50:1; 2 h
Description: 89WP/nanoantibody eye drops were prepared according to the proportion in Table 5, and incubated overnight at 4° C. for later use.
The ARPE-19 cells were plated in a 24-well plate and cultured for over 24 h. The culture solution was then discarded, and 200 μL of the drug solution and 300 μL of serum-free culture solution were added into each well. After 2 h of incubation, the drug solution was discarded, and the cells were washed 3 times with PBS, digested and resuspended in PBS. Flow cytometer was used for detecting Cy5 fluorescence signals (Ex: 645 nm, Em: 665 nm).

[8] = rabbit, in vivo; remark: listed apart in the source
Description: Firstly, eye drops were prepared. […] The compositions were stored at 4° C. for later use. Before being used, the compositions were incubated for at least 24 h at 4° C., and kept standing at room temperature for 1 h.
Subsequently, the administration and tissue sampling protocol were determined. Healthy male rabbits each about 1 kg were selected, eyes of which were ensured to be normal by ophthalmic examination before the experiment. The experimental process follows the ethical specifications of experimental animals. […] Ocular tissue samples were taken at 1 h, 4 h, 8 h, 12 h and 24 h after the administration.
The ELISA plate coated with antigen (hVEGF-A165) was prepared, as well as the extracted tissues (total protein extraction solution of blood plasma, aqueous humor, vitreous humor and retina).
Significant differences were analyzed by 1-tailed ANOVA, corrected by Tukey's test (^nsp>0.05, *p<0.05, **p<0.01, compared to the Rani group).

Row | Substance | increase of mean fluorescence intensity compared with free antibodies [4] [times] | mean fluorescence intensity of cells, comparison between polypeptides [4] | cell uptake of Ranibizumab mediated by polypeptide, comparison between polypeptides [4] | increase of mean fluorescence intensity compared with free antibodies [5] [times] | mean fluorescence intensity of cells, comparison between polypeptides [5] | cell uptake of Ranibizumab mediated by polypeptide, comparison between polypeptides [5] | also measured
1 | Aflibercept |  |  |  |  |  |  | intraocular absorption after eye drop without penetratin derivative [1]: hardly absorbed
2 | Cy5-Rani: Cy5-labeled Ranibizumab |  |  |  |  |  |  | cell uptake rate ([2]; Dynasore added): 24.4%; cell uptake rate ([2]; at 4° C.): 40.6%; cell uptake rate ([2]; chlorpromazine added): 37.8%; cell uptake rate ([2]; hypertonic sucrose added): 35.2%; cell uptake rate ([3]; Dynasore added): 31.4%; cell uptake rate ([3]; at 4° C.): 79.6%; cell uptake rate ([3]; chlorpromazine added): 63.0%; cell uptake rate ([3]; hypertonic sucrose added): 75.7%
3 | Q2W, N9W-Penetratin (RWIKIWFQWRRMKWKK) [29WP] | 11.1 | still the highest | best effect | 13.5 | still the highest | strongest capacity; also recorded: best effect | 
4 | Q2W, Q8W, N9W-Penetratin (RWIKIWFWWRRMKWKK) [289WP] | 11.3 | still the highest | best effect | 14.7 | still the highest | strongest capacity; also recorded: best effect | 
5 | Q8W, N9W-Penetratin (RQIKIWFWWRRMKWKK) [89WP] |  |  |  |  |  |  | increase of 89WP-mediated uptake of antibody compared with free antibody [6]: 2.2-6.7 times; cell uptake of nanoantibody compared with nanoantibody alone [7]: significantly promote
6 | Ranibizumab |  |  |  |  |  |  | intraocular absorption after eye drop without penetratin derivative [8]: hardly absorbed
